Like-named read-outs stand apart in the source and are kept apart here.
How the values were obtained:
[1] = molecular target: T1, SOS1 catalytic domain (residues 564-1049) (Homo sapiens, UniProt Q07889); assay: SOS1 SPR binding affinity assay (Biacore 8K)
T1 sequence (Q07889 564-1049): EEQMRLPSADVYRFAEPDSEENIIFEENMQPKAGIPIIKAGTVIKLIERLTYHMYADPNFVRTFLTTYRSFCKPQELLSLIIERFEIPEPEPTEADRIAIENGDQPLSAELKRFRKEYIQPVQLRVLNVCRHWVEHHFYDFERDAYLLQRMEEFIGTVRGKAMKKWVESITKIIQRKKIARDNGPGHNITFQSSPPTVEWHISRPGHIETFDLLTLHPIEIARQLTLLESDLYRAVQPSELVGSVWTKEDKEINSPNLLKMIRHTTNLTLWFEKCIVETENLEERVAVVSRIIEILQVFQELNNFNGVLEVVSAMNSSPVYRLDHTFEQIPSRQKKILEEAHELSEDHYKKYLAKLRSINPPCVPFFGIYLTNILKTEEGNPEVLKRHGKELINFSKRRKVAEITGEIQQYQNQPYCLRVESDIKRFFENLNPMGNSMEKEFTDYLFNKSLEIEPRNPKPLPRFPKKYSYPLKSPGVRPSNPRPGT

[2] = molecular target: T2, SOS1 nucleotide exchange of wild-type KRAS (SOS1 catalytic domain residues 564-1049; KRAS residue 1-169) (Homo sapiens, UniProt Q07889); assay: Inhibition of SOS1 nucleotide exchange activity of KRAS (TR-FRET); type: biochemical
T2 sequence (Q07889 564-1049): T1 sequence (Q07889 564-1049)

[3] = tested on: SOS1 function in cells: cellular pERK in PC-9 cells (EGFR Ex19Del); assay: pERK potency assay in PC-9 cells (AlphaLISA SureFire Ultra p-ERK1/2); type: cell-based; conditions: 1 hour incubation
Description: The purpose of this assay is tomeasure the ability of test compounds to inhibit SOS1 function in cells. SOS1 activates RAS proteins by catalyzing the conversion of RAS-GDP to RAS-GTP in response to receptor tyrosine kinase activation. […] The procedure described below measures the level of cellular pERK in response to test compounds in PC-9 cells (EGFR Ex19Del).
PC-9 cells were grown and maintained using media and procedures recommended by the ATCC. On the day prior to compound addition, cells were plated in 384-well cell culture plates (40 μL/well) and grown overnight in a 37° C., 5% CO2 incubator. Test compounds were prepared in 10, 3-fold dilutions in DMSO, with a top concentration of 10 mM. On the day of the assay, 40 nL of test compound was added to each well of cell culture plate using an Echo550 liquid handler (LabCyte). Concentrations of test compound were tested in duplicate with highest test concentration being 10 μM. After compound addition, cells were incubated for 1 hour at 37° C., 5% CO2. Following incubation, culture medium was removed and cells were washed once with phosphate buffered saline.
Cellular pERK level was determined using the AlphaLISA SureFire Ultra p-ERK1/2 Assay Kit (PerkinElmer). Cells were lysed in 25 μL lysis buffer, with shaking at 600 RPM at room temperature for 15 minutes. Lysate (10 μL) was transferred to a 384-well Opti-plate (PerkinElmer) and 5 μL acceptor mix was added. The plate was centrifuged at 1000 RPM for 1 minute, and incubated in the dark for 2 hours. Following this incubation, 5 μL of donor mix was added, the plate was sealed and centrifuged at 1000 RPM for 1 minute, and the mixture was incubated for 2 hours at room temperature. Signal was read on an Envision plate reader (PerkinElmer) using standard AlphaLISA settings. Analysis of raw data was carried out in Excel (Microsoft) and Prism (GraphPad). Signal was plotted vs. the decadal logarithm of compound concentration, and IC50 was determined by fitting a 4-parameter sigmoidal concentration response model.

[4] = avi-tagged SOS1 catalytic domain immobilized on streptavidin chip, equilibrium 1:1 binding fit, read-out: SOS1 SPR Equilibrium Kd
[5] = SOS1 nucleotide exchange of wild-type KRAS, three replicates, four-parameter logistic fit, read-out: TR-FRET IC50

| SMILES | IC50 [3] [nM] | IC50 [2, 5] [nM] | also measured |
| --- | --- | --- | --- |
| C[C@@H](Nc1ncnc2c1cc(N1CCOCC1)c(=O)n2C)c1cccc(C(F)(F)CO)c1 [Example 2, (R)-4-((1-(3-(1,1-difluoro-2-hydroxyethyl)phenyl)ethyl)amino)-8-methyl-6-morpholinopyrido[2,3-d]pyrimidin-7(8H)-one] | – | 12.9 | Kd [1, 4]: 7.36 nM |
| Cc1nc(N[C@H](C)c2cccc(C(F)(F)CO)c2)c2cc(C3=CCOCC3)c(=O)n(C)c2n1 [Example 3, (R)-4-((1-(3-(1,1-difluoro-2-hydroxyethyl)phenyl)ethyl)amino)-6-(3,6-dihydro-2H-pyran-4-yl)-2,8-dimethylpyrido[2,3-d]pyrimidin-7(8H)-one] | – | 34.9 | Kd [1, 4]: 21.8 nM |
| Cc1nc(N[C@H](C)c2cccc(C(F)(F)CO)c2)c2cc(C3=CCNCC3)c(=O)n(C)c2n1 [Example 4, (R)-4-((1-(3-(1,1-difluoro-2-hydroxyethyl)phenyl)ethyl)amino)-2,8-dimethyl-6-(1,2,3,6-tetrahydropyridin-4-yl)pyrido[2,3-d]pyrimidin-7(8H)-one] | – | – | Kd [1]: 7.97 nM; IC50 [2]: 10.8 nM |
| C[C@@H](Nc1ncnc2c1cc(C1=CCOCC1)c(=O)n2C)c1cccc(C(F)(F)F)c1 [Example 5, (R)-6-(3,6-dihydro-2H-pyran-4-yl)-8-methyl-4-((1-(3-(trifluoromethyl)phenyl)ethyl)amino)pyrido[2,3-d]pyrimidin-7(8H)-one] | – | 113 | – |
| Cc1nc(N[C@H](C)c2cc(N)cc(C(F)(F)F)c2)c2cc(C3=CCOCC3)c(=O)n(C)c2n1 [Example 7, (R)-4-((1-(3-amino-5-(trifluoromethyl)phenyl)ethyl)amino)-6-(3,6-dihydro-2H-pyran-4-yl)-2,8-dimethylpyrido[2,3-d]pyrimidin-7(8H)-one] | – | 155 | Kd [1, 4]: 117 nM |
| Cc1nc(N[C@H](C)c2cc(N)cc(C(F)(F)F)c2)c2cc(C3CCNCC3)c(=O)[nH]c2n1 [Example 8, (R)-4-((1-(3-amino-5-(trifluoromethyl)phenyl)ethyl)amino)-2-methyl-6-(piperidin-4-yl)pyrido[2,3-d]pyrimidin-7(8H)-one] | – | 22.2 | – |
| Cc1nc(N[C@H](C)c2cccc(C(F)(F)F)c2)c2cc(N3CCOCC3)c(=O)n(C)c2n1 [Example 10, 2,8-dimethyl-6-(morpolin-4-yl)-4-[[(1R)-1-[3-(trifluoromethyl)phenyl]ethyl]amino]-7H,8H-pyrido[2,3-d]pyrimidin-7-one] | – | 178 | IC50 ([3]; Homo sapiens, PC-9, 1 h): 787 nM |
| C[C@@H](Nc1ncnc2c1cc(N1CCOCC1)c(=O)n2C1CC1)c1cccc(C(F)(F)F)c1 [Example 11, 8-cyclopropyl-6-(morpholin-4-yl)-4-{[(1R)-1-[3-(trifluoromethyl)phenyl]ethyl]amino}-7H,8H-pyrido[2,3-d]pyrimidin-7-one] | – | 32.8 | IC50 ([3]; Homo sapiens, PC-9, 1 h): 292 nM |
| C[C@@H](Nc1ncnc2c1cc(C1=CC[S+]([O-])CC1)c(=O)n2C)c1cccc(C(F)F)c1F (stereo partly drawn) [Example 22, 4-(((R)-1-(3-(difluoromethyl)-2-fluorophenyl)ethyl)amino)-8-methyl-6-(1-oxido-3,6-dihydro-2H-thiopyran-4-yl)pyrido[2,3-d]pyrimidin-7(8H)-one] | – | 298 | Kd [1, 4]: 34.2 nM |
| C[C@@H](Nc1ncnc2c1cc(C1=CCS(=N)(=O)CC1)c(=O)n2C)c1cccc(C(F)F)c1F (stereo partly drawn) [Example 23, 4-(((R)-1-(3-(difluoromethyl)-2-fluorophenyl)ethyl)amino)-6-(1-imino-1-oxido-1,2,3,6-tetrahydro-1λ^6-thiopyran-4-yl)-8-methylpyrido[2,3-d]pyrimidin-7(8H)-one] | – | 20.9 | Kd [1, 4]: 19.8 nM |
| CN=S1(=O)CC=C(c2cc3c(N[C@H](C)c4cccc(C(F)F)c4F)ncnc3n(C)c2=O)CC1 (stereo partly drawn) [Example 24, 4-(((R)-1-(3-(difluoromethyl)-2-fluorophenyl)ethyl)amino)-8-methyl-6-(1-(methylimino)-1-oxido-1,2,3,6-tetrahydro-1λ^6-thiopyran-4-yl)pyrido[2,3-d]pyrimidin-7(8H)-one] | – | 13.5 | – |
| C[C@@H](Nc1ncnc2c1cc(C1CC[S+]([O-])CC1)c(=O)n2C)c1cccc(C(F)F)c1F (stereo partly drawn) [Example 25, (R)-4-((1-(3-(difluoromethyl)-2-fluorophenyl)ethyl)amino)-8-methyl-6-(1-oxidotetrahydro-2H-thiopyran-4-yl)pyrido[2,3-d]pyrimidin-7(8H)-one] | – | 15.9 | Kd [1, 4]: 19.4 nM |
| C[C@@H](Nc1ncnc2c1cc(Sc1ccccc1)c(=O)n2C)c1cccc(C(F)F)c1F [Example 30, 4-{[(1R)-1-[3-(difluoromethyl)-2-fluorophenyl]ethyl]amino}-8-methyl-6-(phenylsulfanyl)-7H,8H-pyrido[2,3-d]pyrimidin-7-one] | – | 10900 | – |
| COC1(c2cc3c(N[C@H](C)c4cccc(C(F)F)c4F)ncnc3n(C)c2=O)CCS(=O)(=O)CC1 [Example 32, 4-(4-{[(1R)-1-[3-(difluoro-methyl)-2-fluorophenyl]ethyl]amino}-8-methyl-7-oxo-7H,8H-pyrido[2,3-d]pyrimidin-6-yl)-4-methoxy-1λ^6-thiane-1,1-dione] | – | – | Kd [1, 4]: 39.6 nM |
| CC(=O)N1CC2CC2(c2cc3c(N[C@H](C)c4cccc(C(F)F)c4F)ncnc3n(C)c2=O)C1 (stereo partly drawn) [Example 54, 6-{3-acetyl-3-azabicyclo[3.1.0]hexan-1-yl}-4-{[(1R)-1-[3-(difluoromethyl)-2-fluorophenyl]ethyl]amino}-8-methyl-7H,8H-pyrido[2,3-d]pyrimidin-7-one] | – | – | IC50 ([3]; Homo sapiens, PC-9, 1 h): 46.3 nM |

More lines, main results first:

| IC50 [3] [nM] | SMILES | IC50 [2, 5] [nM] | also measured |
| --- | --- | --- | --- |
| 173 | COC1(c2cc3c(N[C@H](C)c4cccc(C(F)F)c4F)ncnc3n(C)c2=O)CC2CS(=O)(=O)CC2C1 (stereo partly shown) [Example 32-84] | – | – |
| 53.7 | COC1(c2cc3c(N[C@H](C)c4cccc(C(F)F)c4F)ncnc3n(C)c2=O)CC2CS(=O)(=O)CC2C1 (stereo partly shown) [Example 32-85] | – | – |
| 82.5 | COC1(c2cc3c(N[C@H](C)c4cccc(C(F)F)c4C)ncnc3n(C)c2=O)CCS(=O)(=O)CC1 [Example 32-86] | – | – |
| 13.4 | COC1(c2cc3c(N[C@H](C)c4cccc(C(F)F)c4C)ncnc3n(C)c2=O)CCN(C(C)=O)CC1 [Example 32-87] | – | – |
| 8.1 | COC1(c2cc3c(N[C@@H](C)c4cccc(C(F)F)c4F)ncnc3n(C)c2=O)CCN(C(C)=O)CC1 [Example 32-88] | – | – |
| 294 | CO[C@@]1(c2cc3c(N[C@H](C)c4cccc5c4OCC5(F)F)ncnc3n(C)c2=O)CCN(C(C)=O)C1 [Example 32-93] | – | – |
| 28 | CO[C@]1(c2cc3c(N[C@H](C)c4cccc5c4OCC5(F)F)ncnc3n(C)c2=O)CCN(C(C)=O)C1 [Example 32-94] | – | – |
| 798 | COC1(c2cc3c(N[C@H](C)c4cccc(C(F)F)c4F)ncnc3n(C)c2=O)CN(C(C)=O)CC12CC2 (stereo partly shown) [Example 32-95] | – | – |
| 231 | CO[C@]1(c2cc3c(N[C@H](C)c4cccc(C(F)F)c4C)ncnc3n(C)c2=O)CCN(C(C)=O)C1 [Example 32-98] | – | – |
| 16.9 | CO[C@@]1(c2cc3c(N[C@H](C)c4cccc(C(F)F)c4C)ncnc3n(C)c2=O)CCN(C(C)=O)C1 [Example 32-99] | – | – |
| 200 | COC1(c2cc3c(N[C@H](C)c4cccc(C(F)F)c4F)ncnc3n(C)c2=O)CCN(C(C)=O)[C@H]1C (stereo partly shown) [Example 32-100] | – | – |
| 348 | COC1(c2cc3c(N[C@H](C)c4cccc(C(F)F)c4F)ncnc3n(C)c2=O)CCN(C(C)=O)[C@@H]1C (stereo partly shown) [Example 32-101] | – | – |
| 63 | C[C@@H](Nc1ncnc2c1cc(C1(C#N)CCN(C)CC1)c(=O)n2C)c1cccc(C(F)F)c1F [Example 36-2] | – | – |
